Patent publication US20190209539A1, “THIOHYDANTOIN ANDROGEN RECEPTOR ANTAGONISTS FOR THE TREATMENT OF CANCER” (Janssen Pharmaceutica NV, priority 2016, published 2019)
Numbering of substitutions follows the chain as printed.

How the values were obtained:
[1] = target: T1, wild-type Androgen Receptor (AR-wt) (Homo sapiens, UniProt P10275); experiment: LNCaP-AR-wt AG: ARE luciferase reporter assay, agonist mode; assay type: cell-based; conditions: maximum % stimulation (agonist response), % of 1 μM R-1881 max
T1 construct: expressed in transfected cells; host or cells: LNCaP AR (cs) cells with ARE firefly luciferase lentiviral construct
T1 sequence (P10275 1-920): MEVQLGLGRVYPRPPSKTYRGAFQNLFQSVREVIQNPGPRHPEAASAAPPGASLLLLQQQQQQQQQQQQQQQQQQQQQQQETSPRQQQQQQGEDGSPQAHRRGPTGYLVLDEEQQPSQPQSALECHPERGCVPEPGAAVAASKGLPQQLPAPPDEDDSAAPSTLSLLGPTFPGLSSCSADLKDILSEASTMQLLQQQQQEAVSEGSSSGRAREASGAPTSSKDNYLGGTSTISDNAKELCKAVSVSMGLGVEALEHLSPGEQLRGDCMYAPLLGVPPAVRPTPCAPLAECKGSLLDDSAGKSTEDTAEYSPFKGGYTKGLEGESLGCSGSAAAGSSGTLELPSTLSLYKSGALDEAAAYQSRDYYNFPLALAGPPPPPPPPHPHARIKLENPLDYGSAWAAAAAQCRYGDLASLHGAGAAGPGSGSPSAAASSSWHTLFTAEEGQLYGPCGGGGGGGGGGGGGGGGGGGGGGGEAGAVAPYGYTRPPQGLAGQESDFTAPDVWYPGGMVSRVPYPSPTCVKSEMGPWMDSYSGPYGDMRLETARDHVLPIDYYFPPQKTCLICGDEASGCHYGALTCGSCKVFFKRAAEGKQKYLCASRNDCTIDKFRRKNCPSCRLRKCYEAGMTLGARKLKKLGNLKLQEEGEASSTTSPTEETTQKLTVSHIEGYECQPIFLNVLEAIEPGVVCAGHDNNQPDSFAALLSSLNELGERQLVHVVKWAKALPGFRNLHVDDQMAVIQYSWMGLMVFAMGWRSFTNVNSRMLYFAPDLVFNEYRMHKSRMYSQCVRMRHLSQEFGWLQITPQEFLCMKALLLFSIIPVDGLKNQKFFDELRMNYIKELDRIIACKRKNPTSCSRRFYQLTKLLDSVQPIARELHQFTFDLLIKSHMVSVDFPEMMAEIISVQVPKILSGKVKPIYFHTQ
Procedure: (§1) A stable pooled-population cell line was generated using puromycin (Life Technologies) selection at 1:10,000 v/v. The protocol below was used for both cell lines and for testing of the compounds of Formula (I) of the present invention.
(§2) LNCaP cells were grown to about 80% confluence, media removed and cells rinsed in Hank's balanced salt solution prior to separation from the plate with 0.05% Trypsin EDTA. Cells were lifted and trypsin negated in complete CSS (charcoal stripped serum) culture media. […] Agonist challenge was at 400 pM for WT assay and 600 pM for F876L assay. Plates containing cells and compounds herein were incubated for a further 20-24 hours at 37° C., 5% CO2 before addition of 40 μL/well of Steady-Glo Luciferase Assay System Reagent (Promega# E2520). After 1 h, plates were read for luminescence on a BMG Pherastar.
(§3) EC/IC50 calculations were achieved utilizing calculated RLU data and data fitting macros. Data were fit using least-squares methods to the following formula: […]
(§4) As used herein: pIC50 is defined as—Log10(IC50 expressed in [Molar]). pEC50 is defined as—Log10(EC50 expressed in [Molar]). […] LNCaP-AR-wt ANT refers to the reporter assay using LNCaP cells stably transfected with the Androgen Response Element Firefly Luciferase lentiviral construct and wild-type Androgen Receptor (AR-wt) in Antagonist mode. LNCaP-AR-wt AG refers to the reporter assay using LNCaP cells stably transfected with the Androgen Response Element Firefly Luciferase lentiviral construct and wild-type Androgen Receptor (AR-wt) in Agonist mode. LNCaP-AR-F876L ANT refers to the reporter assay using LNCaP cells stably transfected with the Androgen Response Element Firefly Luciferase lentiviral construct and F876L mutant Androgen Receptor (AR-F876L) in Antagonist mode. LNCaP-AR-F876L AG refers to the reporter assay using LNCaP cells stably transfected with the Androgen Response Element Firefly Luciferase lentiviral construct and F876L mutant Androgen Receptor (AR-F876L) in Agonist mode.

[2] = target: T2, F876L mutant Androgen Receptor (AR-F876L) (Homo sapiens, UniProt P10275, F877L); experiment: LNCaP-AR-F876L AG: ARE luciferase reporter assay, agonist mode; assay type: cell-based; conditions: maximum % stimulation (agonist response), % of 1 μM R-1881 max
T2 construct: expressed in transfected cells; host or cells: LNCaP F876L cells with ARE firefly luciferase lentiviral construct
T2 sequence (P10275 1-920 F877L): T1 sequence (P10275 1-920) with F877L
Procedure: as §1, §2, §3, §4

Row | SMILES | LNCaP-AR-wt AG MAX % Stim [1] [%] | LNCaP-AR-F876L AG MAX % Stim [2] [%]
1 | N#Cc1ncc(N2C(=O)C3(CCC3)N(c3ccc(C(=O)NCCCc4ccccc4)c(F)c3)C2=S)cc1C(F)(F)F [Cpd 57, 4-[6-[6-cyano-5-(trifluoromethyl)-3-pyridyl]-5-oxo-7-thioxo-6,8-diazaspiro[3.4]octan-8-yl]-2-fluoro-N-(3-phenylpropyl)benzamide] | 0.0 | 0.5
2 | N#Cc1ncc(N2C(=O)C3(CCC3)N(c3ccc(C(=O)NCc4cccs4)c(F)c3)C2=S)cc1C(F)(F)F [Cpd 59, 4-[6-[6-cyano-5-(trifluoromethyl)-3-pyridyl]-5-oxo-7-thioxo-6,8-diazaspiro[3.4]octan-8-yl]-2-fluoro-N-(2-thienylmethyl)benzamide] | 1.5 | 0.7
3 | Cc1cc(N2C(=O)C3(CCC3)N(c3ccc(Oc4ccncn4)cc3)C2=S)cnc1C#N [Cpd 62, 3-methyl-5-[5-oxo-8-(4-pyrimidin-4-yloxyphenyl)-7-thioxo-6,8-diazaspiro[3.4]octan-6-yl]pyridine-2-carbonitrile] | 0.8 | 0.4
4 | Cc1cc(N2C(=O)C3(CCC3)N(c3ccc(C(=O)Nc4nccs4)c(F)c3)C2=S)cnc1C#N [Cpd 63, 4-[6-(6-cyano-5-methyl-3-pyridyl)-5-oxo-7-thioxo-6,8-diazaspiro[3.4]octan-8-yl]-2-fluoro-N-thiazol-2-yl-benzamide] | 0.7 | 0.3
5 | N#Cc1ncc(N2C(=O)C3(CCC3)N(c3ccc(C(=O)NCc4cccnc4)c(F)c3)C2=S)cc1C(F)(F)F [Cpd 67, 4-[6-[6-cyano-5-(trifluoromethyl)-3-pyridyl]-5-oxo-7-thioxo-6,8-diazaspiro[3.4]octan-8-yl]-2-fluoro-N-(3-pyridylmethyl)benzamide] | 1.5 | 0.8
6 | CCCNC(=O)c1ccc(N2C(=S)N(c3cnc(C#N)c(C(F)(F)F)c3)C(=O)C23CCC3)cc1F [Cpd 68, 4-[6-[6-cyano-5-(trifluoromethyl)-3-pyridyl]-5-oxo-7-thioxo-6,8-diazaspiro[3.4]octan-8-yl]-2-fluoro-N-propyl-benzamide] | 0.2 | 0.9
7 | N#Cc1ncc(N2C(=O)C3(CCC3)N(c3ccccc3)C2=S)cc1C(F)(F)F [Cpd 70, 5-(5-oxo-8-phenyl-7-thioxo-6,8-diazaspiro[3.4]octan-6-yl)-3-(trifluoromethyl)pyridine-2-carbonitrile] | 0.3 | 0.9
8 | N#Cc1ncc(N2C(=O)C3(CCC3)N(c3ccc(Oc4ccncn4)cc3)C2=S)cc1C(F)(F)F [Cpd 71, 5-[5-oxo-8-(4-pyrimidin-4-yloxyphenyl)-7-thioxo-6,8-diazaspiro[3.4]octan-6-yl]-3-(trifluoromethyl)pyridine-2-carbonitrile] | 0.5 | 0.9
9 | N#Cc1ncc(N2C(=O)C3(CCC3)N(c3ccc(C(=O)NCCCN4CCOCC4)c(F)c3)C2=S)cc1C(F)(F)F [Cpd 72, 4-[6-[6-cyano-5-(trifluoromethyl)-3-pyridyl]-5-oxo-7-thioxo-6,8-diazaspiro[3.4]octan-8-yl]-2-fluoro-N-(3-morpholinopropyl)benzamide] | 0.3 | 0.6
10 | Cc1ccc(NC(=O)c2ccc(N3C(=S)N(c4cnc(C#N)c(C)c4)C(=O)C34CCC4)cc2F)cn1 [Cpd 75, 4-[6-(6-cyano-5-methyl-3-pyridyl)-5-oxo-7-thioxo-6,8-diazaspiro[3.4]octan-8-yl]-2-fluoro-N-(6-methyl-3-pyridyl)benzamide] | 0.8 | 0.8
11 | N#Cc1ncc(N2C(=O)C3(CCC3)N(c3cccc(CO)c3)C2=S)cc1C(F)(F)F [Cpd 81, 5-[8-[3-(hydroxymethyl)phenyl]-5-oxo-7-thioxo-6,8-diazaspiro[3.4]octan-6-yl]-3-(trifluoromethyl)pyridine-2-carbonitrile] | 0.7 | 1.2
12 | Cc1cc(N2C(=O)C3(CCC3)N(c3ccc(OC4CCOCC4)cc3)C2=S)cnc1C#N [Cpd 87, 3-methyl-5-[5-oxo-8-(4-tetrahydropyran-4-yloxyphenyl)-7-thioxo-6,8-diazaspiro[3.4]octan-6-yl]pyridine-2-carbonitrile] | 1.1 | 0.9
13 | N#Cc1ncc(N2C(=O)C3(CCC3)N(c3ccc(Oc4cncnc4)cc3)C2=S)cc1C(F)(F)F [Cpd 88, 5-[5-oxo-8-(4-pyrimidin-5-yloxyphenyl)-7-thioxo-6,8-diazaspiro[3.4]octan-6-yl]-3-(trifluoromethyl)pyridine-2-carbonitrile] | 0.7 | 0.7
14 | N#Cc1ncc(N2C(=O)C3(CCC3)N(c3ccc4[nH]ncc4c3)C2=S)cc1C(F)(F)F [Cpd 92, 5-[8-(1H-indazol-5-yl)-5-oxo-7-thioxo-6,8-diazaspiro[3.4]octan-6-yl]-3-(trifluoromethyl)pyridine-2-carbonitrile] | 2.8 | 1.3
15 | Cc1cc(N2C(=O)C3(CCC3)N(c3ccc(-c4cncnc4)cc3)C2=S)cnc1C#N [Cpd 93, 3-methyl-5-[5-oxo-8-(4-pyrimidin-5-ylphenyl)-7-thioxo-6,8-diazaspiro[3.4]octan-6-yl]pyridine-2-carbonitrile] | 0.9 | 0.8
16 | Cc1cc(N2C(=O)C3(CCC3)N(c3ccc(C4CCOCC4)cc3)C2=S)cnc1C#N [Cpd 101, 3-methyl-5-[5-oxo-8-(4-tetrahydropyran-4-ylphenyl)-7-thioxo-6,8-diazaspiro[3.4]octan-6-yl]pyridine-2-carbonitrile] | 1.1 | 1.7
